According to patent publication US11655235B2, “Pyrrolidine and piperidine compounds” (YUHAN CORPORATION, priority 2019, dated 2023):

What was measured:
Recombinant human FAP = target: T1, Recombinant human FAP (Homo sapiens, UniProt Q12884); assay: FAP FRET assay, FGF21-sequence FRET peptide substrate; format: biochemical; settings: FRET peptide with human FGF21 sequence, 6 μM, 37° C.
T1 construct: purchased R&D systems
T1 sequence (Q12884 1-760): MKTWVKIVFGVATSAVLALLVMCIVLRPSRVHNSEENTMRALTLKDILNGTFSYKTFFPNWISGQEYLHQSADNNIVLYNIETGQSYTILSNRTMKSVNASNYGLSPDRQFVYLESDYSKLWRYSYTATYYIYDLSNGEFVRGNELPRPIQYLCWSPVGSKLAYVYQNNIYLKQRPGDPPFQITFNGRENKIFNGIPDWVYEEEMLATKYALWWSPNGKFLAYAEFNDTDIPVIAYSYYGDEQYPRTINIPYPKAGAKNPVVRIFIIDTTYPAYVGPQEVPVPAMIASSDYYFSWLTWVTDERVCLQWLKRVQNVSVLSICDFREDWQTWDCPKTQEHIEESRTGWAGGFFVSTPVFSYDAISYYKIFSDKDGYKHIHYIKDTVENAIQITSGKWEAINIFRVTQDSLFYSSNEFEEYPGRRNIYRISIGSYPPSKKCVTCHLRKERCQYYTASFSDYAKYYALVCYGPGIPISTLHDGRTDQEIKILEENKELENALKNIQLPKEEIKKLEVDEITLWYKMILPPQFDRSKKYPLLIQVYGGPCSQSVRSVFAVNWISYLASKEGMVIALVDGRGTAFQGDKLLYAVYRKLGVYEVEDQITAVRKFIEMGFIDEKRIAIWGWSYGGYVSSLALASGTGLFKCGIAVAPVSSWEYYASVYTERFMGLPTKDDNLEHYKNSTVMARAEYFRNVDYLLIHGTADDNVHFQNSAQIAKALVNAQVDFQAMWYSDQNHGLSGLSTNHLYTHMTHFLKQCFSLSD
Description: The compounds according to the present technology were evaluated in terms of the inhibitory effect on the activity of dipeptidyl peptidases including FAP by using a substrate producing fluorescent substances upon enzymatic decomposition. The test was conducted at 25° C. to get a final reaction volume of 100 μL in a 96 black well plate. […] Briefly, the test compounds were dissolved in dimethyl sulfoxide (DMSO) at a concentration of 20 mM and then subjected to serial dilution, thereby creating an 8 point curve. As for the control group, a 6 point curve created by serial dilution of Talabostat in the same buffer solution was used. Fluorescence intensity was measured using a microplate reader (Flexstation3, Molecular Devices) under the wavelength condition exciting at 380 nm and reading the emission at 460 nm. The inhibitory effect of the test compounds was measured as a decrease (%) in the signal rate as compared to the control group without any inhibitor. Data was fixed to a logistic model with four variables and IC50 value was calculated using GraphPad Prism program. For the FAP FRET assay, recombinant human FAP (R&D systems) was diluted with 50 mM HEPES (pH 7.2) buffer comprising 150 mM of sodium chloride, 0.1 mg/ml of bovine serum albumin (BSA) and 1 mM EDTA to be 10 ng per final reaction. The test compounds were subjected to serial dilution in a buffer under the condition containing up to 0.1% of DMSO. FRET peptides containing human FGF21 sequence ([…]) conjugated with HyLite Fluor 488 and dark quencher QXL 520 (Anaspec) was used as a substrate. By dissolving in DMSO and then diluting in the same buffer, the substrate was added to be 6 μM per final reaction. All reactions of FRET assay was conducted at 37° C.

DPP4 = DPP4 (Homo sapiens, UniProt P27487); assay: DPP4 inhibition, fluorogenic substrate H-Gly-Pro-AMC; format: biochemical; design: purchased R&D Systems; settings: recombinant human DPP4
DPP4, sequence (P27487 whole entry): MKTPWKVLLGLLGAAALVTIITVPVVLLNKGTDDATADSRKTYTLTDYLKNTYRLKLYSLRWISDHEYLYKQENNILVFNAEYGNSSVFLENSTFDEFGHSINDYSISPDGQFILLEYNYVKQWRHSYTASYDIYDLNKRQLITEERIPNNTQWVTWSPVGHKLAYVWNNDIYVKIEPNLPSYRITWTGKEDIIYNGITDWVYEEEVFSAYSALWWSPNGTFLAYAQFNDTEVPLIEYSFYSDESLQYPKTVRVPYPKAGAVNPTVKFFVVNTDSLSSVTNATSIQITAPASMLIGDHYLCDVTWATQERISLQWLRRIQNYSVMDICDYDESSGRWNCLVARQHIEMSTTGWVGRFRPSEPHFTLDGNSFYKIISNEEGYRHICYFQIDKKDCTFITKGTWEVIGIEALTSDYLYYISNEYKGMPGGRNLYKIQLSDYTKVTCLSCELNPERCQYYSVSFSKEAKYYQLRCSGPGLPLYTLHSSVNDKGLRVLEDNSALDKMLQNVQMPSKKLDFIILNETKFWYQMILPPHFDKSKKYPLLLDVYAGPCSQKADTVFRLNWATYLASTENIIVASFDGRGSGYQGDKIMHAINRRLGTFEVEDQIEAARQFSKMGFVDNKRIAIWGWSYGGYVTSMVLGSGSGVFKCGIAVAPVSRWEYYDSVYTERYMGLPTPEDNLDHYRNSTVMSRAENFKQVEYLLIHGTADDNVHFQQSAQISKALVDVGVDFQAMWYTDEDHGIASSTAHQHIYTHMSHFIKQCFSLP

| SMILES | IC50 (Recombinant human FAP) | IC50 (DPP4) |
| --- | --- | --- |
| CCN(c1cccc2ncccc12)C1CCN(CC(=O)N2C[C@@H](F)C[C@H]2C#N)CC1 [Example 305, (2S,4S)-1-[2-[4-[ethyl(5-quinolyl)amino]-1-piperidyl]acetyl]-4-fluoro-pyrrolidine-2-carbonitrile] | 50.7 nM | 2080 nM |
| Cc1ccc2ncc(N(C)C3CCN(CC(=O)N4CCC[C@H]4C#N)CC3)cc2c1 [Example 322, (2S)-1-[2-[4-[methyl-(6-methyl-3-quinolyl)amino]-1-piperidyl]acetyl]pyrrolidine-2-carbonitrile] | 10.3 nM | ≥ 100000 nM |
| COc1cccc2cc(N(C)C3CCN(CC(=O)N4CCC[C@H]4C#N)CC3)cnc12 [Example 325, (2S)-1-[2-[4-[methyl-(8-methoxy-3-quinolyl)amino]-1-piperidyl]acetyl]pyrrolidine-2-carbonitrile] | 8.9 nM | ≥ 100000 nM |
| COc1ccc2ncc(N(C)C3CCN(CC(=O)N4C[C@@H](F)C[C@H]4C#N)CC3)cc2c1 [Example 327, (2S,4S)-4-fluoro-1-(2-(4-((6-methoxyquinolin-3-yl)(methyl)amino)piperidin-1-yl)acetyl)pyrrolidine-2-carbonitrile] | 3.1 nM | 31500 nM |
| COc1ccc2cc(N(C)C3CCN(CC(=O)N4C[C@@H](F)C[C@H]4C#N)CC3)cnc2c1 [Example 328, (2S,4S)-4-fluoro-1-(2-(4-((7-methoxyquinolin-3-yl)(methyl)amino)piperidin-1-yl)acetyl)pyrrolidine-2-carbonitrile] | 6 nM | 21400 nM |
| Cc1ccc2ncc(NC3CCN(CC(=O)N4C[C@@H](F)C[C@H]4C#N)CC3)cc2c1 [Example 363, (2S,4S)-4-fluoro-1-[2-[4-[(6-methyl-3-quinolyl)amino]-1-piperidyl]acetyl]pyrrolidine-2-carbonitrile] | 30.6 nM | ≥ 10000 nM |
| N#C[C@@H]1C[C@H](F)CN1C(=O)CN1CCC(Nc2cnc3ncccc3c2)CC1 [Example 368, (2S,4S)-4-fluoro-1-[2-[4-(1,8-naphthyridin-3-ylamino)-1-piperidyl]acetyl]pyrrolidine-2-carbonitrile] | 36.7 nM | ≥ 10000 nM |
| N#C[C@@H]1C[C@H](F)CN1C(=O)CN1CCC(Nc2cnc3nc(Cl)ccc3c2)CC1 [Example 369, (2S,4S)-1-[2-[4-[(7-chloro-1,8-naphthyridin-3-yl)amino]-1-piperidyl]acetyl]-4-fluoro-pyrrolidine-2-carbonitrile] | 62.1 nM | ≥ 10000 nM |
| CCOc1ccc(NC2CCN(CC(=O)N3CCC[C@H]3C#N)CC2)c2cccnc12 [Example 370, (2S)-1-[2-[4-[(8-ethoxy-5-quinolyl)amino]-1-piperidyl]acetyl]pyrrolidine-2-carbonitrile] | 11 nM | 36800 nM |
| Cc1cc(NC2CCN(CC(=O)N3C[C@@H](F)C[C@H]3C#N)CC2)cc2cccnc12 [Example 374, (2S,4S)-4-fluoro-1-[2-[4-[(8-methyl-6-quinolyl)amino]-1-piperidyl]acetyl]pyrrolidine-2-carbonitrile] | 31.6 nM | 5670 nM |
| N#C[C@@H]1C[C@H](F)CN1C(=O)CN1CCC(Nc2cc(F)c3ncccc3c2)CC1 [Example 375, (2S,4S)-4-fluoro-1-[2-[4-[(8-fluoro-6-quinolyl)amino]-1-piperidyl]acetyl]pyrrolidine-2-carbonitrile] | 22.9 nM | 6960 nM |
| N#C[C@@H]1C[C@H](F)CN1C(=O)CN1CCC(Nc2ccnc3cccnc23)CC1 [Example 380, (2S,4S)-4-fluoro-1-[2-[4-(1,5-naphthyridin-4-ylamino)-1-piperidyl]acetyl]pyrrolidine-2-carbonitrile] | 77.1 nM | 8160 nM |

Continued by falling IC50 (Recombinant human FAP), values first:

| IC50 (Recombinant human FAP) | IC50 (DPP4) | SMILES |
| --- | --- | --- |
| 99.2 nM | 24500 nM | N#C[C@@H]1CCCN1C(=O)CN1CCC(Nc2cc(=O)oc3ccccc23)CC1 [Example 378, (2S)-1-[2-[4-[(2-oxochromen-4-yl)amino]-1-piperidyl]acetyl]pyrrolidine-2-carbonitrile] |
| 92.4 nM | 2760 nM | CC(=O)N1CCc2c(NC3CCN(CC(=O)N4C[C@@H](F)C[C@H]4C#N)CC3)cccc21 [Example 373, (2S,4S)-1-[2-[4-[(1-acetylindolin-4-yl)amino]-1-piperidyl]acetyl]-4-fluoro-pyrrolidine-2-carbonitrile] |
| 47.4 nM | 3380 nM | N#C[C@@H]1C[C@H](F)CN1C(=O)CN1CCC(Nc2cc(=O)oc3ccccc23)CC1 [Example 379, (2S,4S)-4-fluoro-1-[2-[4-[(2-oxochromen-4-yl)amino]-1-piperidyl]acetyl]pyrrolidine-2-carbonitrile] |
| 36 nM | ≥ 10000 nM | COc1ccc2cc(NC3CCN(CC(=O)N4C[C@@H](F)C[C@H]4C#N)CC3)cnc2c1 [Example 366, (2S,4S)-4-fluoro-1-[2-[4-[(7-methoxy-3-quinolyl)amino]-1-piperidyl]acetyl]pyrrolidine-2-carbonitrile] |
| 30.7 nM | 17400 nM | Cc1cccc2c(NC3CCN(CC(=O)N4C[C@@H](F)C[C@H]4C#N)CC3)ccnc12 [Example 343, (2S,4S)-4-fluoro-1-[2-[4-[(8-methyl-4-quinolyl)amino]-1-piperidyl]acetyl]pyrrolidine-2-carbonitrile] |
| 28.1 nM | ≥ 10000 nM | COc1cccc2cc(NC3CCN(CC(=O)N4C[C@@H](F)C[C@H]4C#N)CC3)cnc12 [Example 367, (2S,4S)-4-fluoro-1-[2-[4-[(8-methoxy-3-quinolyl)amino]-1-piperidyl]acetyl]pyrrolidine-2-carbonitrile] |
| 25 nM | ≥ 100000 nM | COc1ccc2cc(N(C)C3CCN(CC(=O)N4CCC[C@H]4C#N)CC3)cnc2c1 [Example 324, (2S)-1-[2-[4-[(7-methoxy-3-quinolyl)-methyl-amino]-1-piperidyl]acetyl]pyrrolidine-2-carbonitrile] |
| 22.3 nM | ≥ 10000 nM | COc1ccc2ncc(NC3CCN(CC(=O)N4C[C@@H](F)C[C@H]4C#N)CC3)cc2c1 [Example 365, (2S,4S)-4-fluoro-1-[2-[4-[(6-methoxy-3-quinolyl)amino]-1-piperidyl]acetyl]pyrrolidine-2-carbonitrile] |
| 19.3 nM | 6470 nM | N#C[C@@H]1C[C@H](F)CN1C(=O)CN1CCC(Nc2ccnc3c(F)cccc23)CC1 [Example 345, (2S,4S)-4-fluoro-1-[2-[4-[(8-fluoro-4-quinolyl)amino]-1-piperidyl]acetyl]pyrrolidine-2-carbonitrile] |
| 17.2 nM | 9130 nM | N#C[C@@H]1C[C@H](F)CN1C(=O)CN1CCC(Nc2cnc3ccc(F)cc3c2)CC1 [Example 364, (2S,4S)-4-fluoro-1-[2-[4-[(6-fluoro-3-quinolyl)amino]-1-piperidyl]acetyl]pyrrolidine-2-carbonitrile] |
| 8.8 nM | 50600 nM | Cc1ccc2ncc(N(C)C3CCN(CC(=O)N4C[C@@H](F)C[C@H]4C#N)CC3)cc2c1 [Example 326, (2S,4S)-4-fluoro-1-[2-[4-[methyl-(6-methyl-3-quinolyl)amino]-1-piperidyl]acetyl]pyrrolidine-2-carbonitrile] |
| 7.5 nM | 26300 nM | COc1cccc2cc(N(C)C3CCN(CC(=O)N4C[C@@H](F)C[C@H]4C#N)CC3)cnc12 [Example 329, (2S,4S)-4-fluoro-1-[2-[4-[(8-methoxy-3-quinolyl)-methyl-amino]-1-piperidyl]acetyl]pyrrolidine-2-carbonitrile] |
| 5.8 nM | ≥ 100000 nM | COc1ccc2ncc(N(C)C3CCN(CC(=O)N4CCC[C@H]4C#N)CC3)cc2c1 [Example 323, (S)-1-(2-(4-((6-methoxyquinolin-3-yl)(methyl)amino)piperidin-1-yl)acetyl)pyrrolidine-2-carbonitrile] |
